According to paper PMC12340637, “Transport of Small Aliphatic Amines by Polyspecific Solute Carriers: Deciphering Structure–Function Relationships” (ACS Pharmacology & Translational Science, 2025):
Like-named read-outs stand apart in the source and are kept apart here. Marks after values point to notes of the source that are not given here.

How the values were obtained:
OCT1 (SLC22A1) = biological target: T1, OCT1 (SLC22A1) (Homo sapiens, UniProt O15245); assay: Cellular uptake into OCT1-overexpressing HEK293 cells vs EV control cells (HPLC-MS/MS); conditions: for uptake ratio OCT1 (transporter-overexpressing cells over EV control cells): mean (±SD, N): 2 min, HEK293; for K m (±SEM) / v max (±SEM): OCT1, net uptake, Michaelis–Menten
T1 sequence (O15245 1-554): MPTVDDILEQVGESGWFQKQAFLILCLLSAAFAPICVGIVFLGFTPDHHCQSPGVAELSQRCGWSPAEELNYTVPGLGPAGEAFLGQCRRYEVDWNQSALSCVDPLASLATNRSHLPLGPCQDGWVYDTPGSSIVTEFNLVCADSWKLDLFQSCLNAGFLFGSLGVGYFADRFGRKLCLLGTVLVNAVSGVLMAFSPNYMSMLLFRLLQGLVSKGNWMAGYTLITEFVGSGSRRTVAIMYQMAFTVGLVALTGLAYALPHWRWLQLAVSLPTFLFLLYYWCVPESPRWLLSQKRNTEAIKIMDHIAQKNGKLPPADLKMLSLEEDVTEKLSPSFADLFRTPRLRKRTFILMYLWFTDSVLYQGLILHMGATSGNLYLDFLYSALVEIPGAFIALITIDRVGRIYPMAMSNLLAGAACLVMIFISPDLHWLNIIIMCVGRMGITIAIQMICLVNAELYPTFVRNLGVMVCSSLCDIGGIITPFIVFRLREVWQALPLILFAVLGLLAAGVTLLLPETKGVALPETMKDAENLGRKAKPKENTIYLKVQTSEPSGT

OCT3 (SLC22A3) = biological target: T2, OCT3 (SLC22A3) (Homo sapiens, UniProt O75751); assay: Cellular uptake into OCT3-overexpressing HEK293 cells vs EV control cells (HPLC-MS/MS); conditions: for uptake ratio OCT3 (transporter-overexpressing cells over EV control cells): mean (±SD, N): 2 min, HEK293
T2 sequence (O75751 1-556): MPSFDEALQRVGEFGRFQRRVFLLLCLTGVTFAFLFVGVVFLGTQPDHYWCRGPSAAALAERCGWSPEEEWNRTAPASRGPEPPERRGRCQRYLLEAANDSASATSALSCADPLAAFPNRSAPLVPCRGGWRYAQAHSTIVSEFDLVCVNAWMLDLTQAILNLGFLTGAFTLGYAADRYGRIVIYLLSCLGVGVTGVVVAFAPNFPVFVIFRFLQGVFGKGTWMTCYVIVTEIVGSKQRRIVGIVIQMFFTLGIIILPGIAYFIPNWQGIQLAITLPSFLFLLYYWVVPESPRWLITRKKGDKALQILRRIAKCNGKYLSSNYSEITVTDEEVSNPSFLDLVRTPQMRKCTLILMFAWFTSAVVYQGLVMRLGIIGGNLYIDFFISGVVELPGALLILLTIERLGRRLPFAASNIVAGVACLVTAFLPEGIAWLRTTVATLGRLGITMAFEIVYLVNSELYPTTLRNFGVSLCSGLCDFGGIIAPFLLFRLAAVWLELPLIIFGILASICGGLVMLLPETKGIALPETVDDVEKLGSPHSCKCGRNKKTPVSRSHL

OCT2 (SLC22A2) = biological target: T3, OCT2 (SLC22A2) (Homo sapiens, UniProt O15244); assay: Cellular uptake into OCT2-overexpressing HEK293 cells vs EV control cells (HPLC-MS/MS); conditions: for uptake ratio OCT2 (transporter-overexpressing cells over EV control cells): mean (±SD, N): 2 min, HEK293; for K m (±SEM) / v max (±SEM): OCT2, net uptake, Michaelis–Menten
T3 sequence (O15244 1-555): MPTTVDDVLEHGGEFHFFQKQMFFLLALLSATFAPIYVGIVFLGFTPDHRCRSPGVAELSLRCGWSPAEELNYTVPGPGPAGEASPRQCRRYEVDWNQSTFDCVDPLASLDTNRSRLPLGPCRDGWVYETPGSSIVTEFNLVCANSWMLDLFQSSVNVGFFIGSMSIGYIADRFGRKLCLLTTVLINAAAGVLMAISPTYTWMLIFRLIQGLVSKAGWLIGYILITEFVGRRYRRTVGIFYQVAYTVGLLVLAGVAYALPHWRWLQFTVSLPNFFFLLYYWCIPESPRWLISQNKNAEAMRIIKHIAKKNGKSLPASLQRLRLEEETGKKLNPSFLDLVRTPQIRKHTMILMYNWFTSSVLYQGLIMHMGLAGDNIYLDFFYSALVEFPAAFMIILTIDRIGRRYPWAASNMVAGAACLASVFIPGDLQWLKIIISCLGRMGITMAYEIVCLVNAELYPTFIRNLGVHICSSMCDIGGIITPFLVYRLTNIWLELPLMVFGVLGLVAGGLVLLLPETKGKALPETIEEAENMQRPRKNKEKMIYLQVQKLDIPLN

MATE1 (SLC47A1) = biological target: T4, MATE1 (SLC47A1) (Homo sapiens, UniProt Q96FL8); assay: Cellular uptake into MATE1-overexpressing HEK293 cells vs EV control cells (HPLC-MS/MS); conditions: for uptake ratio MATE1 (transporter-overexpressing cells over EV control cells): mean (±SD, N): 2.5 μM substrate, 1 min, 30 mM NH4Cl preincubation, HEK293; for K m (±SEM) / v max (±SEM): MATE1, net uptake, Michaelis–Menten
T4 sequence (Q96FL8 1-570): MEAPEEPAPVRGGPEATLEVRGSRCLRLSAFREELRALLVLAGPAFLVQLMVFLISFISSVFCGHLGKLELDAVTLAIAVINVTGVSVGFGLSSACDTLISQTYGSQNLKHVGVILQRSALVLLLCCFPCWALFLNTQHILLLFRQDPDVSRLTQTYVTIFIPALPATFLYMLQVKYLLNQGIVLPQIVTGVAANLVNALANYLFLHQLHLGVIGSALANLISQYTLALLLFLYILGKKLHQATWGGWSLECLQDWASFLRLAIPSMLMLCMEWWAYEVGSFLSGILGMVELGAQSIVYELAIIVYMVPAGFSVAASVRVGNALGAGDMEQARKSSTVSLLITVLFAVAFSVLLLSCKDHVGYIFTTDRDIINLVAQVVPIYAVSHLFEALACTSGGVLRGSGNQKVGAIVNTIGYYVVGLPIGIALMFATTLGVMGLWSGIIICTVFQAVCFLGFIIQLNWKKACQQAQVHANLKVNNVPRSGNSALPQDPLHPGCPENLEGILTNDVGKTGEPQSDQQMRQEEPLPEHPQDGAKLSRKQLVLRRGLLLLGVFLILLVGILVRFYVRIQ

MATE2-K (SLC47A2) = MATE2-K (SLC47A2) (Homo sapiens, UniProt Q86VL8); assay: Cellular uptake into MATE2-K-overexpressing HEK293 cells vs EV control cells (HPLC-MS/MS); conditions: for uptake ratio MATE2K (transporter-overexpressing cells over EV control cells): mean (±SD, N): 2.5 μM substrate, 1 min, 30 mM NH4Cl preincubation, HEK293
MATE2-K (SLC47A2), sequence (Q86VL8 1-566 isoform Q86VL8-3): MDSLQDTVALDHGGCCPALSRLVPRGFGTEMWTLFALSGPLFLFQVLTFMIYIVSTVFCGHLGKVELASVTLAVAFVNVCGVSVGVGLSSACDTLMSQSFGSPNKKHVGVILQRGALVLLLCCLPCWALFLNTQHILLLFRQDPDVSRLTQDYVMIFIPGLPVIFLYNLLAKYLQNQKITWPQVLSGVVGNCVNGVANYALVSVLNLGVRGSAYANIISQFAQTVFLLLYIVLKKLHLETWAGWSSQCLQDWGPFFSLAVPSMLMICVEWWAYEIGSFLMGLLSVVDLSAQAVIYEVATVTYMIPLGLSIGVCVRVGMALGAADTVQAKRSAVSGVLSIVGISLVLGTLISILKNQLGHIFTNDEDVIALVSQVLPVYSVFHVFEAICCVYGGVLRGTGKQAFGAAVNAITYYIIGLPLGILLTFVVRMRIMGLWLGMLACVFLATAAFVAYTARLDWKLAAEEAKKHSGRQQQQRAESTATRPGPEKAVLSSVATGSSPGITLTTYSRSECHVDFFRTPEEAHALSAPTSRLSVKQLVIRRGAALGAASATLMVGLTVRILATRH

[1] = uptake ratio ≥2 = notable transport
[2] = OCT3, net uptake, Michaelis–Menten

Row | Compound | uptake ratio OCT1 (transporter-overexpressing cells over EV control cells): mean (±SD, N) (OCT1 (SLC22A1); 10 μM substrate) | uptake ratio OCT3 (transporter-overexpressing cells over EV control cells): mean (±SD, N) (OCT3 (SLC22A3); 10 μM substrate) | uptake ratio OCT2 (transporter-overexpressing cells over EV control cells): mean (±SD, N) (OCT2 (SLC22A2); 10 μM substrate) | uptake ratio MATE1 (transporter-overexpressing cells over EV control cells): mean (±SD, N) (MATE1 (SLC47A1)) | uptake ratio MATE2K (transporter-overexpressing cells over EV control cells): mean (±SD, N) (MATE2-K (SLC47A2)) | other results
1 | CC(C)CN [isobutylamine] | 1.1 (0.2, 4) | 0.7 (0.2, 4) ^a | 3.4 (1.2, 4) ^a | 0.9 (0.2, 4) | 1.2 (0.3, 4) | 
2 | CCCCN [butylamine] |  | 1.5 (1.0, 5) | 6.4 (2.0, 5) ^b | 1.0 (0.1, 4) | 1.2 (0.3, 4) | 
3 | CN(CCCN)CCCN [3,3′-diamino-N-methyldipropylamin] |  |  |  |  |  | substrate activity at OCT1 (in words) (OCT1 (SLC22A1)): did not show any substrate activity; substrate activity at OCT3 (in words) (OCT3 (SLC22A3)): did not show any substrate activity; substrate activity at MATE2-K (in words) (MATE2-K (SLC47A2)): did not show any substrate activity
4 | CCCCCCN [hexylamine] | 1.8 (1.4, 5) | 0.6 (0.2, 4) ^a | 1.6 (0.4, 4) | 0.8 (0.2, 4) | 1.2 (0.6, 5) | 
5 | CCCCCCCN [heptylamine] | 2.5 (1.9, 6) | 1.85 (1.17, 6) | 4.2 (3.1, 6) ^a | 1.0 (0.3, 4) | 1.4 (0.3, 4) | 
6 | NCCCCCCO [6-amino-1-hexanol] |  |  |  |  | 1.4 (0.3, 3) | K m (±SEM) (OCT1 (SLC22A1)): 487 (±171) μM; v max (±SEM) (OCT1 (SLC22A1)): 1656 (±294) pmol/mg protein/min; substrate activity at OCT1 (in words) (OCT1 (SLC22A1); [1]): notable transport; K m (±SEM) (OCT3 (SLC22A3); [2]): 1168 (±151) μM; v max (±SEM) (OCT3 (SLC22A3); [2]): 4675 (±384) pmol/mg protein/min; substrate activity at OCT3 (in words) (OCT3 (SLC22A3); [1]): notable transport; K m (±SEM) (OCT2 (SLC22A2)): 1176 (±273) μM; v max (±SEM) (OCT2 (SLC22A2)): 16,933 (±2577) pmol/mg protein/min; substrate activity at OCT2 (in words) (OCT2 (SLC22A2); [1]): notable transport; K m (±SEM) (MATE1 (SLC47A1)): 253 (±47) μM; v max (±SEM) (MATE1 (SLC47A1)): 14,115 (±1479) pmol/mg protein/min; substrate activity at MATE1 (in words) (MATE1 (SLC47A1); [1]): notable transport
7 | CC(N)CCCC(C)(C)O (centres unmarked) [heptaminol] |  |  |  | 6.6 (1.3, 3) ^a | 1.0 (0.2, 3) | uptake ratio OCT1 (transporter-overexpressing cells over EV control cells): mean (±SD, N) (OCT1 (SLC22A1); 2.5 μM substrate (§)): 11.3 (4.6, 3); K m (±SEM) (OCT1 (SLC22A1)): 241 (±68) μM; v max (±SEM) (OCT1 (SLC22A1)): 1480 (±174) pmol/mg protein/min; uptake ratio OCT3 (transporter-overexpressing cells over EV control cells): mean (±SD, N) (OCT3 (SLC22A3); 2.5 μM substrate (§)): 1.1 (0.29, 4); uptake ratio OCT2 (transporter-overexpressing cells over EV control cells): mean (±SD, N) (OCT2 (SLC22A2); 2.5 μM substrate (§)): 8.7 (5.0, 3); K m (±SEM) (OCT2 (SLC22A2)): 1089 (±213) μM; v max (±SEM) (OCT2 (SLC22A2)): 9730 (±1210) pmol/mg protein/min; K m (±SEM) (MATE1 (SLC47A1)): 154 (±18) μM; v max (±SEM) (MATE1 (SLC47A1)): 8061 (±283) pmol/mg protein/min; CLint of MATE1 higher than that of OCT1 (MATE1 (SLC47A1); MATE1 vs OCT1): 6.0 fold; CLint of MATE1 higher than that of OCT2 (MATE1 (SLC47A1); MATE1 vs OCT2): 3.7 fold
8 | CNCCCO [3-methylamino-1-propanol] | 1.2 (0.2, 3) | 1.0 (0.2, 3) | 2.6 (1.0, 4) ^a | 0.8 (0.2, 4) | 1.1 (0.4, 4) | 
9 | CCC(C)(C)N [tert-amylamine] |  |  |  | 0.9 (0.2, 3) | 1.0 (0.1, 3) | uptake ratio OCT1 (transporter-overexpressing cells over EV control cells): mean (±SD, N) (OCT1 (SLC22A1); 2.5 μM substrate (§)): 1.0 (0.3, 3); uptake ratio OCT3 (transporter-overexpressing cells over EV control cells): mean (±SD, N) (OCT3 (SLC22A3); 2.5 μM substrate (§)): 0.8 (0.1, 3); uptake ratio OCT2 (transporter-overexpressing cells over EV control cells): mean (±SD, N) (OCT2 (SLC22A2); 2.5 μM substrate (§)): 4.7 (2.1, 3)
10 | OCCNCCO [diethanolamine] |  |  |  |  |  | substrate activity at OCT1 (in words) (OCT1 (SLC22A1)): did not show any substrate activity; substrate activity at OCT3 (in words) (OCT3 (SLC22A3); [1]): did not show any substrate activity; substrate activity at OCT2 (in words) (OCT2 (SLC22A2)): did not show any substrate activity; substrate activity at MATE1 (in words) (MATE1 (SLC47A1)): did not show any substrate activity; substrate activity at MATE2-K (in words) (MATE2-K (SLC47A2)): did not show any substrate activity
11 | CCN(CC)CCO [2-(diethylamino)ethanol] |  | 1.2 (0.1, 3) | 4.0 (1.5, 3) | 1 (0.13, 3) | 1.4 (0.2, 3) | v max (±SEM) (OCT2 (SLC22A2)): 794 (±109) pmol/mg protein/min
12 | CC(C)N [isopropylamine] | 1.3 (0.2, 3) | 1.0 (0.2, 3) | 5.3 (1.7, 3) ^a | 1.4 (0.2, 3) |  | 
13 | C[C@H](N)CCO [(S)-3-aminobutan-1-ol] |  |  |  |  |  | stereoselectivity OCT3 (uptake ratio of the more strongly transported enantiomer divided by that of the other) (OCT3 (SLC22A3); label = favoured enantiomer): 1.2-fold for (S)
14 | NCCN(CCN)CCN [tris(2-aminoethyl)amine] |  |  |  |  |  | substrate activity at OCT3 (in words) (OCT3 (SLC22A3); [1]): did not show any substrate activity
15 | NCCCCNCCCN [spermidine-(butyl-d8)] |  |  |  | 1.0 (0.4, 3) | 0.8 (0.1, 3) | 
16 | CC(C)(C)N [tert-butylamine] |  | 1.3 (0.5, 3) | 3.8 (1.6, 4) ^a | 1.3 (0.3, 3) | 1.0 (0.2, 3) | 
